From US20130178653A1, “NOVEL PRECURSOR OF RADIOLABELLED CHOLINE ANALOG COMPOUNDS” (IMPERIAL COLLEGE, priority 2010, published 2013)
Read-outs that look alike come from different tables or passages of the source.

Experiments:
[1] = mouse, in vivo; for form of radioactivity in tumors: iv
Protocol: Metabolite analysis of tissues including liver, kidney and tumor by HPLC was also accomplished. […] Choline and its metabolites lack any UV chromophore to permit presentation of chromatograms of the cold unlabelled compound simultaneously with the radioactivity chromatograms.
Liver, kidney, and tumor samples were obtained at 30 min. All samples were snap-frozen in liquid nitrogen. […] To ˜0.2 mL plasma was added ice-cold methanol (1.5 mL). The mixture was then centrifuged (3 min, 15,493×g, 4jC). […] Liver, kidney, and tumor samples were homogenized in ice-cold methanol (1.5 mL) using an IKA Ultra-Turrax T-25 homogenizer and subsequently treated as per plasma samples (above). All samples were analyzed by radio-HPLC on an Agilent 1100 series HPLC system (Agilent Technologies) equipped with a γ-RAM Model 3 γ-detector (IN/US Systems) and Laura 3 software (Lablogic). The stationary phase comprised a Waters μBondapak C18 reverse-phase column (300×7.8 mm) (Waters, Milford, Mass., USA). Samples were analyzed using a mobile phase comprising solvent A (acetonitrile/water/ethanol/acetic acid/1.0 mol/L ammonium acetate/0.1 mol/L sodium phosphate; 800/127/68/2/3/10) and solvent B (acetonitrile/water/ethanol/acetic acid/1.0 mol/L ammonium acetate/0.1 mol/L sodiumphosphate; 400/400/68/44/88/10) with a gradient of 0% B for 6 min, then 0>100% B in 10 min, 100% B for 0.5 min, 100>0% B in 1.5 min then 0% B for 2 min, delivered at a flow rate of 3 mL/min

[2] = tested on: choline oxidase; conditions: 60 min, 1.76 MBq/mL, pH 7
[3] = for parent compound still present after potassium permanganate treatment: 1 hour post-treatment, KMnO4, Na2CO3, H2O, rt, radio-HPLC
[4] = tested on: human melanoma SKMEL-28 xenografts; conditions: mouse, in vivo
Protocol: (§1) Dynamic [^18F]FCH and [^18F]D4-FCH imaging scans were carried out on a dedicated small animal PET scanner, quad-HIDAC (Oxford Positron Systems). The features of this instrument have been described previously (Barthel, H., et al., Cancer Res 2003; 63(13):3791-8). For scanning the tail veins, vehicle- or drug-treated mice were cannulated after induction of anesthesia (isofluorane/O2/N2O). The animals were placed within a thermostatically controlled jig (calibrated to provide a rectal temperature of ˜37° C.) and positioned prone in the scanner. [^18F]FCH or [^18F]D4-FCH (2.96-3.7 MBq) was injected via the tail vein cannula and scanning commenced. Dynamic scans were acquired in list mode format over a 60 min period as reported previously (Leyton, J., et al., Cancer Research 2006; 66(15):7621-9). The acquired data were sorted into 0.5 mm sinogram bins and 19 time frames (0.5×0.5×0.5 mm voxels; 4×15, 4×60, and 11×300 s) for image reconstruction, which was done by filtered back-projection using a two-dimensional Hamming filter (cutoff 0.6). The image data sets were visualized using the Analyze software (version 6.0; Biomedical Imaging Resource, Mayo Clinic). Cumulative images of 30 to 60 min dynamic data were used for visualization of radiotracer uptake and to draw regions of interest. Regions of interest were defined manually on five adjacent tumor regions (each 0.5 mm thickness). Dynamic data from these slices were averaged for each tissue (liver, kidney, muscle, urine, and tumor) and at each of the 19 time points to obtain time versus radioactivity curves. Corresponding whole body time versus radioactivity curves representing injected radioactivity were obtained by adding together radioactivity in all 200×160×160 reconstructed voxels. Tumor radioactivity was normalized to whole-body radioactivity and expressed as percent injected dose per voxel (% ID/vox). The normalized uptake of radiotracer at 60 min (% ID/vox60) was used for subsequent comparisons. The average of the normalized maximum voxel intensity across five slices of tumor % IDvox60max was also use for comparison to account for tumor heterogeneity and existence of necrotic regions in tumor. The area under the curve was calculated as the integral of % ID/vox from 0 to 60 min

[5] = mouse, in vivo, 60 min
Protocol: as §1

[6] = Oxidation potential in vivo (radio-HPLC of mouse plasma after i.v. injection); conditions: 15 min after i.v. injection into mice
[7] = tested on: choline oxidase; test: Enzymatic oxidation study using choline oxidase; conditions: 60 minute time point, room temperature, pH 7
[8] = mouse, in vivo
[9] = tested on: HCT116 human colon xenografts; conditions: mouse, in vivo
Protocol: Time course biodistribution was carried out for [^18F]fluoromethylcholine, [^18F]fluoromethyl-[1-^2H2]choline and [^18F]fluoromethyl-[1,2-^2H4]choline in nude mice bearing HCT116 human colon xenografts.
Human colon (HCT116) tumors were grown in […] (Harlan, Bicester, United Kingdom) as previously reported (Leyton, J., et al., Cancer Research 2005; 65(10):4202-10). Tumor dimensions were measured continuously using a caliper and tumor volumes were calculated by the equation: volume=(π/6)×a×b×c, where a, b, and c represent three orthogonal axes of the tumor. Mice were used when their tumors reached approximately 100 mm^3. [^18F]Fluoromethylcholine, [^18F]fluoromethyl-[1-^2H2]choline and [^18F]fluoromethyl-[1,2-^2H4]choline (˜3.7 MBq) were each injected via the tail vein into awake untreated tumor bearing mice. The mice were sacrificed at pre-determined time points (2, 30 and 60 min) after radiotracer injection under terminal anesthesia to obtain blood, plasma, tumor, heart, lung, liver, kidney and muscle. Tissue radioactivity was determined on a gamma counter (Cobra II Auto-Gamma counter, Packard Biosciences Co, Pangbourne, UK) and decay corrected. Data were expressed as percent injected dose per gram of tissue.

[10] = tested on: choline kinase A (CHKA); test: Choline kinase A expression in HCT116 tumors by western blotting; assay type: in vivo, mice; conditions: day 10, 25 mg/kg daily orally
Protocol: HCT116 tumors from mice that were injected with PD0325901 (25 mg/kg daily for 10 days, orally) or vehicle were analyzed for CHKA expression by western blotting. β-actin was used as the loading control. (b) Summary densitometer measurements for CHKA expression expressed as a ratio to β-actin. The results are the mean ratios±SE; n=3, * P=0.05.
Size-matched HCT116 tumor bearing mice were randomized to receive daily treatment by oral gavage of vehicle (0.5% hydroxypropyl methylcellulose+0.2% Tween 80) or 25 mg/kg (0.005 mL/g mouse) of the mitogenic extracellular kinase inhibitor, PD0325901, prepared in vehicle. [^18F]D4-FCH-PET scanning was done after 10 daily treatments with the last dose administered 1 h before scanning. […] The results are illustrated in FIGS. 18 and 19.
To understand further the mechanisms regulating [^18F]D4-FCH uptake with drug treatment, changes in CHKA expression in PD0325901 and vehicle-treated tumors excised after PET scanning were assessed.

[11] = tested on: HCT116 cells; test: Effect of PD0325901 on [^18F]D4-FCH metabolism and CHKA expression in HCT116 cells in culture; assay type: cell-based, human
Protocol: HCT116 cells were grown in T150 flasks in triplicate until they were 70% confluent and then treated with vehicle (1% DMSO in growth medium) or 1 μmol/L PD0325901 in vehicle for 24 h. Cells were pulsed for 1 h with 1.1 MBq of either [^18F]D4-FCH or [^18F]FCH. The cells were washed three times in ice-cold phosphate buffered saline (PBS), scraped into 5 mL PBS, and centrifuged at 500×g for 3 min and then resuspended in 2 mL ice-cold methanol for HPLC analysis as described above for tissue samples. […] Briefly, HCT116 cells were grown in 100 mm dishes in triplicate and incubated with 5.0 MBq [^18F]FCH for 60 min at 37° C. to form the putative [^18F]FCH-phosphate. The cells were washed with 5 mL ice-cold PBS twice and then scraped and centrifuged at 750×g (4° C., 3 min) in 5 mL PBS. Cells were homogenized in 1 mL of 5 mmol/L Tris-HCl (pH 7.4) containing 50% (v/v) glycerol, 0.5 mmol/L MgCl2, and 0.5 mmol/L ZnCl2 and incubated with 10 units bacterial (type III) alkaline phosphatase (Sigma) at 37° C. in a shaking water bath for 30 min to dephosphorylate the [^18F]FCH-phosphate. The reaction was terminated by adding ice-cold methanol. Samples were processed as per plasma above and analyzed by radio-HPLC. Control experiments were done without alkaline phosphatase. […]

[12] = tested on: HCT116 tumors; test: Effect of PD0325901 treatment in HCT116 tumor bearing mice ([^18F]D4-FCH-PET, tumor size); assay type: in vivo
Protocol: as §1, with “The average of the normalized maximum voxel intensity across five slices of tumor % IDvox60max was also use for comparison to account for tumor heterogeneity and existence of necrotic regions in tumor.” left out

Compound: C[N+](C)(C[18F])CCO [[^18F]FCH, [^18F]Fluoromethylcholine]
- liver radioactivity present as phosphocholine [1]: high proportion
- unknown metabolite (possibly the aldehyde intermediate) in liver [1]: not found
- kidney radioactivity in the form of betaine ([1]; 30 min): 53.5±5.3%
- kidney radioactivity present as phosphocholine ([1]; 30 min): 31.8±9.8%
- unknown metabolite in kidney ([1]; 30 min): 3.3±0.6%
- form of radioactivity in tumors ([1]; 30 min): significant levels of [^18F]FCH-betaine
- parent radiotracer present (radio-HPLC distribution of choline species) [2]: 11±8%
- parent compound still present after potassium permanganate treatment [3]: less than 40%
- tumor radiotracer uptake, % ID/vox60 ([4]; 60 min): 5.50±0.49 % ID/vox
- bladder (urine) radioactivity, % ID/vox60 [5]: 6.70±0.71 % ID/vox
- kidney radioactivity, % ID/vox60 [5]: 15.97±4.65 % ID/vox
- liver radioactivity, % ID/vox60 [5]: 18.75±4.28 % ID/vox
- conversion of parent tracer to betaine metabolite in plasma [6]: 80%

Compound: [2H]C([2H])(O)C([2H])([2H])[N+](C)(C)C[18F] [[^18F]D4-FCH, [^18F]fluoromethyl-[1,2-^2H4]choline]
- parent radiotracer present (radio-HPLC distribution of choline species) [7]: 29±4%
- kidney radioactivity in the form of betaine [1]: 20.6±6.2%
- kidney radioactivity present as phosphocholine [1]: 60.6±3.7%
- liver radioactivity present as phosphocholine [1]: high proportion
- unknown metabolite (possibly the aldehyde intermediate) in liver [1]: 7.4±2.3%
- unknown metabolite in kidney [1]: 8.8±0.2%
- form of radioactivity in tumors [1]: mainly in the form of phosphocholine
- percentage of parent compound in plasma compared to [^18F]FCH [8]: consistently higher
- conversion of parent tracer to betaine metabolite in plasma ([8]; iv): 40%
- proportion of parent compound remaining (radio-HPLC), relative to [^18F]fluoromethylcholine ([3]; 20 min): greater proportion of the parent compound remaining
- parent compound still present after potassium permanganate treatment [3]: ~80%
- tumor uptake at the later time points [9]: pronounced increase
- %IDvox60max (average of maximum pixel % ID/vox60 across 5 slices) compared to [^18F]FCH [4]: significantly higher
- tumor area under the time versus radioactivity curve (AUC) compared to FCH [4]: higher

Compound: O=C(NOC[C@H](O)CO)c1ccc(F)c(F)c1Nc1ccc(I)cc1F [PD0325901]
- CHKA protein expression in tumors [10]: significant reduction
- [^18F]D4-FCH-phosphocholine formation ([11]; 1 μmol/L for 24 h, 60-min uptake of [^18F]D4-FCH): significantly inhibited
- CHKA expression in vitro ([11]; exponentially growing cells): reduction of CHKA expression
- [^18F]D4-FCH radiotracer retention in treated tumors ([12]; 10 daily treatments 25 mg/kg, HCT116 tumors, PET): marked reduction in radiotracer retention
- imaging variables (% ID/vox60, % ID/vox60max, AUC) of [^18F]D4-FCH ([12]; after 10 days of drug treatment, HCT116 tumors): decreased
- reduction in tumor size compared to the pretreatment group ([12]; day 10, 25 mg/kg daily oral, HCT116 xenograft): 12.2%
